In US9695150B2, “Crystalline form of a substituted quinoline compound and pharmaceutical compositions thereof” (Sunshine Lake Pharma Co., Ltd., priority 2015, dated 2017):

Key:
[1] = Stability test (impurity contents by HPLC after storage of the solid); type: physicochemical; details: p-toluenesulfonate
Method: A sample of crystalline form C of compound (I) (100˜200 mg) was placed on a watching glass in the form of a thin layer (thickness ≦5 mm). The samples were exposed to the following conditions: high temperature (60±2° C.) for 10 days; high humidity (25±2° C., 90%±5% relative humidity) for 10 days; illumination condition (visible light 4500 lx±500 lx with ultraviolet light not lower than 0.7 W·h/m^2, 25±2° C., 60%±5% relative humidity) for 10 days; and room temperature (30±2° C., 65%±5% relative humidity) for 10 days, respectively. The impurity contents in the samples were determined at different time points (0, 5 and 10 days) by high performance liquid chromatography (HPLC), and the absorption peaks were normalized relative to the highest peak (corresponds to compound I) which is set to 100%.

[2] = as above; type: physicochemical; details: p-toluenesulfonate; for Increase of the impurity contents: illuminating the samples for 10 days
[3] = Hygroscopicity test; type: physicochemical; details: p-toluenesulfonate; for Hygroscopicity (in words): conclusion from Table 4; for Hygroscopic capacity %: 25±1° C.
Method: A glass weighing bottle equipped with a stopper was tarred and the weight was recorded as m1. Compound (I) in crystalline form C or amorphous form (about 1.0 g) was placed in the tared weighing bottle and capped with the stopper. The total weight was then recorded as m2. […] The weighing bottle capped with its stopper was weighed on day 5 and day 10 and the weight was recorded as m3.

[4] = Pharmacokinetics test in beagle dogs; type: in vivo
Method: The pharmacokinetic properties of amorphous Compound (I) or the crystalline form C of Compound (I) disclosed herein are assessed in beagle dogs. The LC/MS/MS system used in the analysis consists of an Agilent 1200 Series vacuum degasser, binary pump, well-plate autosampler, thermostatted column compartment, the Agilent G6430 Triple Quadrupole Mass Spectrometer with an electrosprayionization (ESI) source. Quantitative analysis was carried out using MRM mode. The parameters for MRM transitions are in the Table A.
An Agilent XDB-C18, 2.1×30 mm, 3.5 μM column was used for the analysis. 5 μL of the samples were injected. Analysis condition: The mobile phase was 0.1% formic acid in water (A) and 0.1% formic acid in methanol (B). The flow rate was 0.4 mL/min. And the gradient of Mobile phase was in the Table B.
Alternatively, an Agilent 6330 series LC/MS/MS spectrometer equipped with G1312A binary pumps, a G1367A autosampler and a G1314C UV detector were used in the analysis. An ESI source was used on the LC/MS/MS spectrometer. The analysis was done in positive ion mode as appropriate and the MRM transition for each analyte was optimized using standard solution. A Capcell MP-C18 100×4.6 mm I.D., […] column (Phenomenex, Torrance, Calif., USA) was used during the analysis. The mobile phase was 5 mM ammonia acetate, 0.1% MeOH in water (A): 5 mM ammonia acetate, 0.1% MeOH in acetonitrile (B) (70/30, v/v). The flow rate was 0.6 mL/min. Column was maintained at ambient temperature. 20 μL of the samples were injected.
The capsule of the crystalline form C or the amorphous of Compound (I) mixed with adjuvants respectively was administered by gavage to beagle dogs in a dose of 7 or 10 mg/kg. The blood samples (0.3 mL) were drawn at 0.25, 0.5, 1.0, 2.0, 3.0, 4.0, 6.0, 8.0, 12 and 24 hour time points or 0.083, 0.25, 0.5, 1.0, 2.0, 4.0, 6.0, 8.0 and 24 hour time points and centrifuged at 3,000 or 4000 rpm for 2 to 10 min. The plasma solutions were collected, and analyzed by LC/MS/MS as described above. The pharmacokinetic parameters were calculated according to non-compartment model using WinNonlin procedure.

[5] = high temperature (60±2° C.), 0 day
[6] = high temperature (60±2° C.), 5 days
[7] = illuminating condition (visible light 4500 lx±500 lx with UV, 25±2° C., 60%±5% RH), 0 day
[8] = illuminating condition (visible light 4500 lx±500 lx with UV, 25±2° C., 60%±5% RH), 5 days
[9] = room temperature (30±2° C., 65%±5% relative humidity), 5 days
[10] = room temperature (30±2° C., 65%±5% relative humidity), 10 days
[11] = high humidity (25±2° C., 90%±5% relative humidity), 0 day
[12] = high humidity (25±2° C., 90%±5% relative humidity), 5 days
[13] = high humidity (25±2° C., 90%±5% relative humidity), 10 days
[14] = high temperature (60±2° C.), 10 days
[15] = illuminating condition (visible light 4500 lx±500 lx with UV, 25±2° C., 60%±5% RH), 10 days
[16] = listed as amorphous Compound (I)
[17] = room temperature (30±2° C., 65%±5% relative humidity), 0 day
[18] = dog, plasma, po, capsule by gavage, dose 9.9 mg/kg (Form C), 9.7 mg/kg (Amorphous)

| SMILES | The impurity contents [1, 5] | The impurity contents [1, 6] | The impurity contents [1, 7] | The impurity contents [1, 8] | The impurity contents [1, 9] | The impurity contents [1, 10] | The impurity contents [2, 11] | The impurity contents [2, 12] | The impurity contents [2, 13] | The impurity contents [2, 14] | The impurity contents [2, 15] | The impurity contents [2, 17] | Hygroscopic capacity % ([3]; standing time 5 d) | Hygroscopic capacity % ([3]; standing time 10 d) | further results |
| --- | --- | --- | --- | --- | --- | --- | --- | --- | --- | --- | --- | --- | --- | --- | --- |
| Cc1c(C(=O)Nc2ccc(Oc3ccnc4cc(OCC(C)(C)O)ccc34)c(F)c2)c(=O)n(-c2ccccc2)n1C.Cc1ccc(S(=O)(=O)O)cc1 [Amorphous, N-(3-fluoro-4-((7-(2-hydroxy-2-methylpropoxy)quinolin-4-yl)oxy)phenyl)-1,5-dimethyl-3-oxo-2-phenyl-2,3-dihydro-1H-pyrazole-4-carboxamide p-toluenesulfonate] | 0.14% | 0.13% | 0.14% | 0.36% | 0.07% | 0.07% | 0.14% | 0.11% | 0.07% | 0.10% | 0.56% | 0.14% | 7.74% | 8.48% | Increase of the impurity contents [2, 16]: 0.42%; Hygroscopicity (in words) [3, 16]: hygroscopic |
| Cc1c(C(=O)Nc2ccc(Oc3ccnc4cc(OCC(C)(C)O)ccc34)c(F)c2)c(=O)n(-c2ccccc2)n1C.Cc1ccc(S(=O)(=O)O)cc1 [Form C, N-(3-fluoro-4-((7-(2-hydroxy-2-methylpropoxy)quinolin-4-yl)oxy)phenyl)-1,5-dimethyl-3-oxo-2-phenyl-2,3-dihydro-1H-pyrazole-4-carboxamide p-toluenesulfonate] | 2.00% | 1.97% | 2.00% | 1.97% | 1.90% | 1.91% | 2.00% | 1.94% | 1.92% | 1.89% | 2.14% | 2.00% | 0.22% | 0.43% | Exposure and bioavailability in vivo (in words) ([4]; Cmax, AUC0-24h and AUC0-∞ compared with amorphous Compound (I)): good exposure and bioavailability; AUC(0-inf) [4, 18]: 90100 ng·h/mL; Cmax [4, 18]: 4760 ng/mL; Tmax [4, 18]: 4 h; half-life [4, 18]: 14.6 h; AUC(0-t) ([4]; dog, plasma, po, capsule by gavage, dose 9.9 mg/kg (Form C), 9.7 mg/kg (Amorphous), read-out: AUC0-24 h): 59700 ng·h/mL; Increase of the impurity contents ([2]; listed as crystalline form C of Compound (I)): 0.14%; Hygroscopicity (in words) ([3]; listed as crystalline form C of compound (I)): not hygroscopic |
